Consider 38 compounds from patent US8071778B2, “Substituted heterocyclic ethers and their use in CNS disorders” (Bristol-Myers Squibb Company, priority 2006, dated 2011).

One may read the IC50 as the concentration that gives 50% inhibition.

The target in one assay is T1, NK-1 (Homo sapiens, UniProt P25103).
T1 construct: endogenous in cells; host or cells: U373 cells (crude membranes)
Kind of assay: NK1 radioligand binding assay. The settings on record: U373 membrane preparation, [125I]Substance P. As to the method:
(§1) NK-1 Binding assay. Crude membrane suspensions were prepared for the NK1 and SERT radioligand binding assays from U373 cells or recombinant HEK-293 cells expressing hSERT, respectively. […] The medium is removed from the flasks and the cells rinsed with HBSS without Ca and without Mg. The cells are then incubated for 5-10 minutes in 10 mM Tris-Cl, pH 7.5, 5 mM EDTA before the cells are lifted with a combination of pipetting and scraping, as needed. To prepare membranes, the cell suspension is collected into centrifuge bottles and homogenized for 30 seconds with a Polytron homogenizer. The suspension is centrifuged for 30 min 32,000×g, 4° C., then the supernatant is decanted and the pellet resuspended and homogenized in 50 mM Tris-Cl, pH 7.5, 1 mM EDTA for 10 seconds. The suspension is then centrifuged again for 30 min 32,000×g, 4° C. The supernatant is decanted and the pellet resuspended in 50 mM Tris-Cl, pH 7.5, 1 mM EDTA and briefly homogenized. A Bradford assay (Bio-rad) is performed and the membrane preparation diluted to 2 mg/ml with 50 mM Tris-Cl, pH 7.5, 1 mM EDTA. Aliquots are prepared, and then frozen and stored at −80° C.
(§2) NK1 radioligand binding assay. Compounds are dissolved in 100% DMSO at a concentration 100× the desired highest assay concentration, serially diluted 1:3 in 100% DMSO, and 0.6 ul/well of each solution is dispensed to a Nunc polypropylene, round bottom, 384 well plate. […] The contents of the assay plate are then transferred to a Millipore MultiscreenHTS GF/B filter plate which has been pretreated with 0.5% PEI for at least one hour. The plate is vacuum filtered and washed with 7 washes of 100 ul/well of 20 mM Tris-Cl, pH 7.5, 0.5% (w/v) BSA chilled to 4° C. The filtration and washing is completed in less than 90 s. The plates are air-dried overnight, 12 ul/well of MicroScint scintillation fluid added, and the plates counted in a Trilux.
(§3) Data analysis. […] Each plate is run in triplicate, and the concentration response curve thus generated is fit using the four-parameter dose response equation, Y=Bottom+(Top-Bottom)/(1+10^((Log IC50−X)*HillSlope)) in order to determine the IC50 value for each compound. The radioligand concentration chosen for each assay corresponds to the Kd concentration determined through saturation binding analysis for each assay.

The target in a further assay is T2, hSERT (Homo sapiens, UniProt P31645).
T2 construct: expressed in transfected cells; host or cells: HEK-293 cells (crude membranes)
T2 sequence (P31645 whole entry): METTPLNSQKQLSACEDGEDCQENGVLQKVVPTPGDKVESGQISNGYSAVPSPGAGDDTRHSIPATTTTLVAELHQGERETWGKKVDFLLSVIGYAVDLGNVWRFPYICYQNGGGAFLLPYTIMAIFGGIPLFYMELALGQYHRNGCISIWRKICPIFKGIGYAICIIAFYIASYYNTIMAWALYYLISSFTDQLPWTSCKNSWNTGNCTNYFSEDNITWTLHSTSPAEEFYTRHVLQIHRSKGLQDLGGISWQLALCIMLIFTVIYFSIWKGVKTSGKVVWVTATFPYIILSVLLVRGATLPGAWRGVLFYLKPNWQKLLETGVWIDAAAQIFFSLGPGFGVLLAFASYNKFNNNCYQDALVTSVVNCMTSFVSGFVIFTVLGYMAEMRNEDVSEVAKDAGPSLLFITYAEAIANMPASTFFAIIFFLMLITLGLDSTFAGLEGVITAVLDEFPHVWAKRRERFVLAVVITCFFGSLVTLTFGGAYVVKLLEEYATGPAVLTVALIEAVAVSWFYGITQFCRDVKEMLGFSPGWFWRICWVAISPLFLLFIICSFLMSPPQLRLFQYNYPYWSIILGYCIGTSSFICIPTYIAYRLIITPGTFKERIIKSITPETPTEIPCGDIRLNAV
Kind of assay: SERT radioligand binding assay. How it is done: as §1
as §2, with “SERT” for “NK1”, “0.4” for “0.6”, “50” for “20”, “120 mM NaCl, 5 mM KCl” for “0.5% (w/v) BSA”
as §3

Where [1] appears, read: HEK-hSERT membrane preparation, [125I]RTI-55, read-out: SERT IC50.

Read-outs that look alike come from different tables or passages of the source. Where only a bound is given, the exact number is not on record here.

T1 sequence (P25103 whole entry): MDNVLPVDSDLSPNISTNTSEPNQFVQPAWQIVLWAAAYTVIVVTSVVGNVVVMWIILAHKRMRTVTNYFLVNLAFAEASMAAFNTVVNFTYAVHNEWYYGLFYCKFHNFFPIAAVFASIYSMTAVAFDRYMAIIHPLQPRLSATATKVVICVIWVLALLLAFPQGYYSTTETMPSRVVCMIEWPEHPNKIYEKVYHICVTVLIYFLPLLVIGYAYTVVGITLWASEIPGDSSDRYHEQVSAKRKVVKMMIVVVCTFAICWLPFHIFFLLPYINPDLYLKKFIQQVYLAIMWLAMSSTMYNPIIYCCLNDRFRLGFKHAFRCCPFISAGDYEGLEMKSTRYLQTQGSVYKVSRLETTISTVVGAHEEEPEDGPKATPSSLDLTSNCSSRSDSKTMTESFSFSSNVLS

With `Cc1cc(-c2cc(C(F)(F)F)cc(COCC3(c4ccc(F)cc4)CCNCC3)n2)ccc1C#N` [Example 11], the IC50 on NK-1 and at hSERT (setting [1]) was 0.01 to 100 nM throughout.

Regarding `CN1CCC(COCc2cc(C(F)(F)F)cc(-c3ccc(C#N)cc3)n2)(c2ccc(F)c(F)c2)CC1` [Example 81], the IC50 at NK-1 and at hSERT was 0.01 to 100 nM each time.

With `CN1CCC(COCc2cc(C(F)(F)F)cc(-c3ncon3)n2)(c2ccc(F)cc2)CC1` [Example 37, 3-(6-(((4-(4-fluorophenyl)-1-methylpiperidin-4-yl)methoxy)methyl)-4-(trifluoromethyl)pyridin-2-yl)-1,2,4-oxadiazole], the results for the IC50 at NK-1 and on hSERT were 100 to 300 nM and 0.01 to 100 nM, respectively.

Turning to `CN1CCC(COCc2cncc(-c3ccco3)c2)(c2ccccc2)CC1` [Example 49], the IC50 is > 300 nM at NK-1 and 0.01 to 100 nM on hSERT.

For the compound `CCC(CC)Nc1cc(C(F)(F)F)cc(COCC2(c3ccc(F)cc3)CCNCC2)n1` [Example 21], the IC50 on NK-1 and at hSERT (setting [1]) was 0.01 to 100 nM each time.

On to `N#CC1CCN(c2cc(C(F)(F)F)cc(COCC3(c4ccc(F)cc4)CCNCC3)n2)C1` (stereo not shown) [Example 18], for which the 50% inhibitory concentration (IC50) at NK-1 and on hSERT (setting [1]) was 0.01 to 100 nM throughout.

Consider `CN1CCC(COCc2cc(C(F)(F)F)cc(-c3ccc(C#N)cc3)n2)(c2cccc(Cl)c2)CC1` [Example 82], for which the IC50 at NK-1 and at hSERT was 0.01 to 100 nM each time.

With `CC(OCC1(c2ccccc2)CCNCC1)c1cc(C(F)(F)F)cc(C(F)(F)F)n1` (stereo not shown) [Example 27, 2-(1-((4-phenylpiperidin-4-yl)methoxy)ethyl)-4,6-bis(trifluoromethyl)pyridine], the IC50 on NK-1 and at hSERT (setting [1]) was 0.01 to 100 nM throughout.

For `CN1CCC(COCc2cc(C(F)(F)F)cc(-c3ccc(F)cc3)n2)(c2ccccc2)CC1` [Example 42], the IC50 on NK-1 and at hSERT was 0.01 to 100 nM each time.

In the case of `c1ccc(C2(COCc3cncc(-c4ccco4)c3)CCNCC2)cc1` [Example 9], the IC50 at NK-1 was > 300 nM; on hSERT (setting [1]) it was 0.01 to 100 nM.

`CN1CCC(COCc2cc(C(F)(F)F)cc(-c3ccc(C#N)cc3)n2)(c2cccc(C(F)(F)F)c2)CC1` [Example 83]: the figures for the IC50 at NK-1 and at hSERT were 0.01 to 100 nM and 100 to 300 nM, respectively.

On to `COc1ccc(-c2cc(C(F)(F)F)cc(COCC3(c4ccccc4)CCNCC3)n2)cc1` [Example 1, 2-(4-methoxyphenyl)-6-(((4-phenylpiperidin-4-yl)methoxy)methyl)-4-(trifluoromethyl)pyridine], for which the IC50 at NK-1 and on hSERT (setting [1]) was 0.01 to 100 nM each time.

In the case of `CN1CCC(COCc2cc(C(F)(F)F)cc(-c3ccc(C#N)cc3)n2)(c2cccc(F)c2)CC1` [Example 85], the IC50 at NK-1 and on hSERT was 0.01 to 100 nM throughout.

Take `Cc1cc(C(F)(F)F)cc(COCC2(c3ccc(F)cc3)CCN(C)CC2)n1` [Example 36, 2-(((4-(4-fluorophenyl)-1-methylpiperidin-4-yl)methoxy)methyl)-6-methyl-4-(trifluoromethyl)pyridine]: the IC50 at NK-1 and on hSERT was 0.01 to 100 nM throughout.

Take `N#Cc1cc(C(F)(F)F)cc(COCC2(c3ccccc3)CCNCC2)n1` [Example 31]: the concentration for half-maximal inhibition (IC50) on NK-1 is > 300 nM; at hSERT (setting [1]), 0.01 to 100 nM.

`CN1CCC(COCc2cc(-c3ccc(C#N)cc3)nc(-c3ccc(C#N)cc3)c2)(c2ccccc2)CC1` [Example 67]: the IC50 was > 300 nM at NK-1 and 100 to 300 nM on hSERT.

Consider `COc1ccc(-c2cc(C(F)(F)F)cc(COCC3(c4ccccc4)CCN(C)CC3)n2)cc1` [Example 38, 2-(4-methoxyphenyl)-6-(((1-methyl-4-phenylpiperidin-4-yl)methoxy)methyl)-4-(trifluoromethyl)pyridine], for which the half-maximal inhibitory concentration (IC50) at NK-1 and at hSERT was 0.01 to 100 nM in each case.

Consider `Fc1ccc(C2(COCc3cc(C(F)(F)F)cc(N4CC=CC4)n3)CCNCC2)cc1` [Example 19], for which the IC50 on NK-1 and at hSERT (setting [1]) was 0.01 to 100 nM each time.

Turning to `CN1CCC(COCc2cc(C(F)(F)F)cc(-c3ccc(C#N)cc3)n2)(c2ccccc2)CC1` [Example 41], the IC50 on NK-1 and at hSERT was 0.01 to 100 nM throughout.

As to `COc1cc(COCC2(c3ccc(F)cc3)CCN(C)CC2)cc(C(F)(F)F)n1` [Example 80], the IC50 at NK-1 and on hSERT was 0.01 to 100 nM in each case.

Take `COc1cc(C(C)OCC2(c3ccc(F)cc3)CCN(C)CC2)cc(-c2ccc(C#N)cc2)n1` (stereo not shown) [Example 79]: the IC50 on NK-1 and on hSERT was 0.01 to 100 nM throughout.

In the case of `CC(OCC1(c2ccc(F)cc2)CCN(C)CC1)c1cc(C(F)(F)F)cc(-c2ccc(C#N)cc2)n1` (stereo not shown) [Example 96], the half-inhibitory concentration (IC50) on NK-1 and on hSERT was 0.01 to 100 nM each time.

For the compound `CCN(c1cc(C(F)(F)F)cc(COCC2(c3ccc(F)cc3)CCN(C)CC2)n1)C(C)C` [Example 73], the IC50 on NK-1 and on hSERT was 0.01 to 100 nM in each case.

With `COc1cc(OC)nc(COCC2(c3ccccc3)CCNCC2)n1` [Example 30, 4,6-dimethoxy-2(((4-phenylpiperidin-4-yl)methoxy)methyl)pyrimidine], the IC50 on NK-1 was > 300 nM; at hSERT (setting [1]), 100 to 300 nM.

As to `Fc1ccc(-c2cc(C(F)(F)F)cc(COCC3(c4ccccc4)CCNCC3)n2)cc1` [Example 5], the IC50 at NK-1 and on hSERT (setting [1]) was 0.01 to 100 nM each time.

With `CC(OCC1(c2ccccc2)CCNCC1)c1cc(C(F)(F)F)cc(N2CCOCC2)n1` (stereo not shown) [Example 23], the IC50 on NK-1 and at hSERT (setting [1]) was 0.01 to 100 nM throughout.

Consider `N#Cc1ccc(-c2cc(C(F)(F)F)cc(COCC3(c4ccc(F)cc4)CCNCC3)n2)cc1` [Example 7], for which the IC50 at NK-1 and at hSERT (setting [1]) was 0.01 to 100 nM throughout.

In the case of `CCN(CC)c1cc(C(F)(F)F)cc(COCC2(c3ccc(F)cc3)CCNCC2)n1` [Example 22], the IC50 on NK-1 and at hSERT (setting [1]) was 0.01 to 100 nM in each case.

`N#Cc1ccc(-c2cc(C(F)(F)F)cc(COCC3(c4ccccc4)CCNCC3)n2)cc1` [Example 6]: the IC50 at NK-1 and on hSERT (setting [1]) was 0.01 to 100 nM each time.

Turning to `Clc1ccc(-c2ccc(COCC3(c4ccccc4)CCNCC3)cn2)cc1` [Example 10], the IC50 was > 300 nM on NK-1 and 0.01 to 100 nM at hSERT (setting [1]).

In the case of `N#Cc1ccc(-c2cncc(COCC3(c4ccccc4)CCNCC3)c2)cc1` [Example 25, 4-(5-(((4-phenylpiperidin-4-yl)methoxy)methyl)pyridine-3yl)benzonitrile], the results for the IC50 at NK-1 and on hSERT (setting [1]) were > 300 nM and 0.01 to 100 nM, respectively.

As for `Cc1ccc(-c2cc(C(F)(F)F)cc(COCC3(c4ccccc4)CCNCC3)n2)cc1` [Example 4], the IC50 on NK-1 and on hSERT (setting [1]) was 0.01 to 100 nM throughout.

For the compound `CN1CCC(COCc2cc(C(F)(F)F)cc(N3CC[C@H](F)C3)n2)(c2ccc(F)cc2)CC1` [Example 91], the IC50 at NK-1 and at hSERT was 0.01 to 100 nM in each case.

In the case of `COC(=O)c1ccc(-c2cc(C(F)(F)F)cc(COCC3(c4ccc(F)cc4)CCN(C)CC3)n2)c(F)c1` [Example 63], the IC50 on NK-1 and at hSERT was 0.01 to 100 nM in each case.

`Cc1cc(-c2cc(C(F)(F)F)cc(C(C)OCC3(c4ccc(F)cc4)CCN(C)CC3)n2)ccc1C#N` (stereo not shown) [Example 97]: the IC50 at NK-1 is 0.01 to 100 nM; at hSERT, 100 to 300 nM.

As to `CN1CCC(COCc2cc(C(F)(F)F)cc(-c3ccc(C#N)cc3)n2)(c2ccc(F)cc2F)CC1` [Example 64], the values for the IC50 on NK-1 and at hSERT were 0.01 to 100 nM and 100 to 300 nM, respectively.

Consider `CC(OCC1(c2ccccc2)CCN(C)CC1)c1cc(C(F)(F)F)cc(-c2ccc(F)cc2)n1` (stereo not shown) [Example 34, 2-(4-fluorophenyl)-6-(1-((1-methyl-4-phenylpiperidin-4-yl)methoxy)ethyl)-4-(trifluoromethyl)pyridine], for which the IC50 at NK-1 and on hSERT (setting [1]) was 0.01 to 100 nM each time.

Consider `CC(OCC1(c2ccc(F)cc2)CCN(C)CC1)c1cc(C(F)(F)F)cc(N2CCC[C@@H]2C)n1` (stereo partly shown) [Example 95], for which the IC50 on NK-1 and on hSERT was 0.01 to 100 nM each time.
